Measured values: PubChem BioAssay (NCI)
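Cells were grown in 96-well plates and exposed to each compound for 48 hours at five concentrations; endpoints were interpolated linearly between bracketing concentrations, or set to the highest concentration if not reached. TGI: concentration producing complete growth inhibition.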

Legend:
Assay in all cases: NCI-60 cell line screen, 48 h
LOX IMVI melanoma = tested on: LOX IMVI melanoma
OVCAR-5 ovarian = tested on: OVCAR-5 ovarian
HOP-62 NSCLC = tested on: HOP-62 NSCLC
SK-MEL-28 melanoma = tested on: SK-MEL-28 melanoma
SN12C renal = tested on: SN12C renal

| SMILES | TGI (LOX IMVI melanoma) | TGI (OVCAR-5 ovarian) | TGI (HOP-62 NSCLC) | TGI (SK-MEL-28 melanoma) | TGI (SN12C renal) |
| --- | --- | --- | --- | --- | --- |
| CC(=O)Nc1ccc2c3c(cc(O)c2c1)N(C(=O)CCCC(=O)Nc1ccc2c4c(cc(O)c2c1)N(C(=O)OC(C)(C)C)CC4CCl)CC3CCl (stereo not given) | > 12.4 µM | > 15.4 µM | > 25.2 µM | > 13 µM | > 13.2 µM |
| CC(=O)OCc1cccc(O)c1C(=O)CCC=C(C)C | > 100 µM | > 100 µM | > 100 µM | > 100 µM | > 100 µM |
| CC1(C)N(OC2CCCCO2)C(c2ccccc2)C(c2ccccc2)=[N+]1[O-] (stereo not given) | > 100 µM | > 100 µM | > 100 µM | > 100 µM | > 100 µM |
| CN(C)C(=S)N/N=C\C(=N/NC(=S)N(C)C)c1ccccc1 | > 100 µM | > 100 µM | > 100 µM | > 100 µM | > 100 µM |
| CC(C)(C)[Si](C)(C)OCC1OC(n2cc(F)c(=O)[nH]c2=O)CC1O[Si](C)(C)C(C)(C)C (stereo not given) | 20 µM | 33 µM | 30 µM | – | 9.43 µM |
| COc1cc2c(c(N)c1OC)C(=O)/C(=C/c1cc(C)c(O)c(C)c1)C2 | > 100 µM | > 100 µM | > 60.2 µM | > 100 µM | > 100 µM |
| CC(C)=CCC[C@](C)(O)[C@H]1CC[C@]2(C)[C@@H]1[C@H](O)C[C@@H]1[C@@]3(C)CC[C@H](O[C@@H]4O[C@H](CO)[C@@H](O)[C@H](O)[C@H]4O)C(C)(C)[C@@H]3CC[C@]12C | 91.5 µM | 49.3 µM | 47.8 µM | 34.8 µM | 32.9 µM |
| COc1ccc(OC)c(C2CCCc3c2cnc2nc(N)nc(N)c32)c1 (stereo not given) | > 100 µM | – | > 100 µM | > 100 µM | > 100 µM |
| CC1(C)CC(=O)C(CC(C(=O)C(=O)Nc2cc(C(F)(F)F)ccc2Cl)C(=O)c2ccco2)C(=O)C1 (stereo not given) | > 100 µM | > 100 µM | – | > 100 µM | > 100 µM |
| O=C(CC(=O)N(C(=O)c1ccccc1)c1ccc(Cl)cc1)N/N=C\c1ccccc1O | > 100 µM | > 100 µM | 89.2 µM | > 100 µM | > 100 µM |
| OCCOCCN1CCN(c2nc(N3CCCC3)c3nc(Cl)c(NCc4ccccc4)nc3n2)CC1 | 23 µM | 28.9 µM | 26.7 µM | 30.2 µM | 29.4 µM |
| Oc1ccc2ccccc2c1-c1c(Nc2ccccc2)ccc2ccccc12 | 48.5 µM | > 50.1 µM | 30.1 µM | 27.4 µM | > 61.2 µM |
| O=C(O)CN1CCNCCN(CC(=O)O)CCNCC1 | > 100 µM | > 100 µM | > 100 µM | – | > 100 µM |
| O=C(O)Cn1nnc2c(=O)[nH][nH]c(=O)c21 | > 100 µM | > 100 µM | > 100 µM | > 100 µM | > 100 µM |
| CC(Oc1ccccc1)C(=O)NN (stereo not given) | > 100 µM | > 100 µM | > 100 µM | > 100 µM | > 100 µM |
| CCN(CC)CCCC(C)NC(=O)c1cc(-c2nccn2C)nc2ccc(C)cc12 (stereo not given) | > 100 µM | > 100 µM | > 100 µM | > 100 µM | – |
| CCCCCCc1cc2cc(C(=O)Nc3ccccc3F)c(=N)oc2cc1O | 19.4 µM | 50.9 µM | 31.8 µM | 56.8 µM | – |

| SMILES | TGI (LOX IMVI melanoma) | TGI (OVCAR-5 ovarian) | TGI (HOP-62 NSCLC) | TGI (SK-MEL-28 melanoma) | TGI (SN12C renal) |
| --- | --- | --- | --- | --- | --- |
| Cc1cccc2nc3n(c12)C(=O)c1ccccc1-3 | – | > 100 µM | > 100 µM | > 100 µM | > 100 µM |
| CC1CC(=O)N2CCCNC2=C1C#N (stereo not given) | > 100 µM | – | > 100 µM | > 100 µM | > 100 µM |
| CC(C)(C)c1ccc(-c2nc3ccccc3c(=O)o2)cc1 | 37.4 µM | > 100 µM | > 100 µM | > 100 µM | > 100 µM |
| NC(=O)Cc1ncn(-c2ccccc2)n1 | > 100 µM | > 100 µM | > 100 µM | – | > 100 µM |
| COc1cc(C2SCC(=O)N2c2ccc(-c3ccc(-n4c(-c5ccccc5)nc5ccccc5c4=O)cc3)cc2)ccc1O (stereo not given) | > 100 µM | > 100 µM | > 100 µM | > 100 µM | > 100 µM |
| O/N=C(\C=N\O)c1ccc2c(c1)Sc1ccccc1O2 | > 100 µM | 87.5 µM | 36.8 µM | 75.3 µM | 37.1 µM |
| CC1=NN(C(=O)CC(=O)Nc2ccccc2C)C(=O)C1N=Nc1ccc(S(=O)(=O)c2ccc(N=NC3C(=O)N(C(=O)CC(=O)Nc4ccccc4C)N=C3C)cc2)cc1 (stereo not given) | > 100 µM | > 100 µM | > 100 µM | > 100 µM | > 100 µM |
| Cc1nc2c(=O)[nH]c3ccccc3c2o1 | > 100 µM | > 100 µM | > 100 µM | > 100 µM | > 100 µM |
| CC(=O)c1c2c(cc3c1CC1(Cc4cc5c(cc4C1=O)CCC5)C3)CCC2 (stereo not given) | > 100 µM | > 100 µM | > 100 µM | > 100 µM | > 100 µM |
| O=C(Cn1c(C(=O)/C=C/c2ccco2)nc2ccccc21)c1ccc(Cl)cc1 | 26.7 µM | > 100 µM | > 100 µM | > 100 µM | 61.5 µM |
| CSc1c(CC(=O)O)n(Cc2ccccc2)c2ccccc12 | > 100 µM | > 100 µM | > 100 µM | > 100 µM | > 100 µM |
| CC(=O)O[C@H]1C(=O)[C@@]2(C)[C@H]([C@H](OC(=O)c3ccccc3)[C@]3(O)C[C@H](OC(=O)[C@H](O)[C@@H](NC(=O)c4ccccc4)C4CCCCC4)C(C)=C1C3(C)C)[C@]1(OC(C)=O)CO[C@@H]1C[C@@H]2O | > 56.4 µM | 0.673 µM | 1.45 µM | > 100 µM | – |
| COc1c(C(=O)/C(=N/Nc2ccccc2)C(C)=O)c(O)c(OC)c2occc12 | > 100 µM | > 100 µM | > 100 µM | > 100 µM | > 100 µM |
| O=c1c2c(sc3ccccc13)NCN(CCc1ccccc1)C2 | > 100 µM | > 100 µM | > 100 µM | > 100 µM | > 100 µM |
| C[C@@H](C(=O)O)c1ccc(-c2ccccc2)c(F)c1 | > 100 µM | > 100 µM | > 100 µM | > 100 µM | > 100 µM |
| CC/C(Cl)=N\OC(=O)Nc1ccccc1OC(F)(F)F | 5.65 µM | 36.9 µM | 37.3 µM | 41.5 µM | 14.2 µM |
| Nc1ccn([C@H]2CO[C@@H](CO)O2)c(=O)n1 | > 100 µM | > 100 µM | > 57.9 µM | > 100 µM | > 100 µM |
